Measurements as given in US20230255906A1, “Targeting Serpin B9 in Cancer” (The Brigham and Women`s Hospital, Inc., priority 2020, published 2023).

Test system: B16 melanoma cells
Assay: Caspase-3 activity assay (EnzChek Caspase-3 Assay Kit), caspase-3 induction in tumor cells; further: test concentration or dose not given here
Format: cell-based, mouse
Conditions: not given
Description: The EnzChek® Caspase-3 Assay Kit was used to detect apoptosis by assaying for increases in caspase-3 activities. The basis for the assay was rhodamine 110 bis-(N-CBZ-L-aspartyl-L-glutamyl-L-valyl-L-aspartic acid amide) (Z-DEVD-R110). This substrate is a bisamide derivative of rhodamine 110 (R110) containing DEVD peptides covalently linked to each of R110's amino groups, thereby suppressing the dye's visible absorption and its fluorescence. Upon enzymatic cleavage, the nonfluorescent bisamide substrate is converted in a two-step process first to a fluorescent monoamide and then to an even more fluorescent R110.
At least 1×10^6 cells of the lysate were used for each reaction. B16 cells were treated with compounds to induce apoptosis. A negative control was prepared by incubating cells in the absence of compounds. The cells were incubated with compounds for 24 hrs and washed in PBS. Each cell sample or control was resuspended in 50 μL of the 1×cell lysis buffer. Cells were lysed by incubating on ice for 30 minutes, and the lysed cells were centrifuged to pellet the cellular debris. 50 μL of the supernatant was transferred from each sample to individual microplate wells. 50 μL of the 1× cell lysis buffer was used as a no-enzyme control to determine the background fluorescence of the substrate. 50 μL of the 2×substrate working solution was added to each sample and control. The microplate was covered, and the samples were incubated at room temperature for approximately 30 minutes. The fluorescence was measured by a fluorescence microplate reader (excitation/emission ˜496/520 nm) using excitation and emission filters.
The ability of this small molecule inhibitor to inhibit intracellular Sb9 was then evaluated. As a marker for cell penetration, the induction of caspase-3 activity in B16 melanoma cells as a surrogate marker for increased GrB activity was measured.
The induction of caspase-3 activity in B16 melanoma cells as a surrogate marker for increased GrB activity was also measured for other small molecules (compounds of Formulas (V) and (VI) as described herein).

Going from `O=C(c1ccc2oc(-c3cccc(F)c3)nc2c1)N1CCOc2ccccc2C1` [4-{[2-(3-fluorophenyl)-1,3-benzoxazol-5-yl]carbonyl}-2,3,4,5-tetrahydro-1,4-benzoxazepine] to `CCN1CCN(C(=O)c2ccc3oc(-c4cccc(F)c4)nc3c2)CC1` [5-[(4-ethyl-1-piperazinyl)carbonyl]-2-(3-fluorophenyl)-1,3-benzoxazole], the “Ratio of caspase-3 activity to Formula (III)” value (shortened to “Ratio of caspase-3 activity”) rises from 0.1627 to 0.6541.

Going from `COc1cccc(-c2nc3ccc(C(=O)N4CCOC(C(N)=O)C4)cc3o2)c1` (stereo not shown) [4-{[2-(3-methoxyphenyl)-1,3-benzoxazol-6-yl]carbonyl}morpholine-2-carboxamide] to `COc1cccc(-c2nc3ccc(C(=O)N4CCS(=O)(=O)CC4)cc3o2)c1` [6-[(1,1-dioxidothiomorpholin-4-yl)carbonyl]-2-(3-methoxyphenyl)-1,3-benzoxazole], the “Ratio of caspase-3 activity” value rises from 0.1611 to 0.7081.

Compared with `O=C(c1ccc2oc(-c3ccc(C(F)(F)F)cc3)nc2c1)N1CCOCC1` [5-(4-morpholinylcarbonyl)-2-[4-(trifluoromethyl)phenyl]-1,3-benzoxazole], `COCC1CCN(C(=O)c2ccc3oc(-c4ccc(C(F)(F)F)cc4)nc3c2)C1` (stereo not shown) [5-{[3-(methoxymethyl)-1-pyrrolidinyl]carbonyl}-2-[4-(trifluoromethyl)phenyl]-1,3-benzoxazole] is higher in “Ratio of caspase-3 activity” value: 0.1317 for the first, 0.1424 for the second.

First: COc1cccc(-c2nc3ccc(C(=O)N4CCN(C5CCCC5)CC4)cc3o2)c1 [6-[(4-cyclopentyl-1-piperazinyl)carbonyl]-2-(3-methoxyphenyl)-1,3-benzoxazole]
Second: O=C(c1ccc2nc(-c3ccccc3)oc2c1)N1CCC12CCOC2 (stereo not shown) [6-{6-oxa-1-azaspiro[3.4]octane-1-carbonyl}-2-phenyl-1,3-benzoxazole]
The “Ratio of caspase-3 activity” value of the first is lower: 0.1582 for the first, 1.434 for the second.

Same assay, conditions: relative to compound of Formula (III)

Compared with `COc1cc(C(=O)NCC(C)C)cc(OC)c1O` [4-hydroxy-3,5-dimethoxy-N-(2-methylpropyl)benzamide], `COc1cc(C(=O)NCC2(C)CC2)cc(OC)c1O` [4-hydroxy-3,5-dimethoxy-N-[(1-methylcyclopropyl)methyl]benzamide] is higher in “Caspase-3 induction, Normalized to Formula (III) (%)” value: −25.2896% for the first, −0.598% for the second.

First: COCCCNC(=O)c1cc(OC)c(O)c(OC)c1 [4-hydroxy-3,5-dimethoxy-N-(3-methoxypropyl)benzamide]
Second: COc1cc(C(=O)NCC2CCOCC2)cc(OC)c1O [4-hydroxy-3,5-dimethoxy-N-[(oxan-4-yl)methyl]benzamide]
The “Caspase-3 induction, Normalized to Formula (III) (%)” value of the first is higher: −23.5938% for the first, −78.7609% for the second.

Going from `COc1cc(C(=O)NCC2CCOCC2)ccc1O` [4-hydroxy-3-methoxy-N-[(oxan-4-yl)methyl]benzamide] to `COCCCNC(=O)c1cc2c(cc1O)OCO2` [6-hydroxy-N-(3-methoxypropyl)-2H-1,3-benzodioxole-5-carboxamide], the “Caspase-3 induction, Normalized to Formula (III) (%)” value rises from −76.3077% to −41.8942%.

Compared with `Cc1cc(O)c(O)cc1C(=O)N1CCCC1` [4-methyl-5-(pyrrolidine-1-carbonyl)benzene-1,2-diol], `O=C(c1cc2c(cc1O)OCO2)N1CCCC1` [6-(pyrrolidine-1-carbonyl)-2H-1,3-benzodioxol-5-ol] is higher in “Caspase-3 induction, Normalized to Formula (III) (%)” value: −40.485% for the first, −35.7785% for the second.

Compared with `O=C(c1ccc2nc(S)oc2c1)N1CCCC1` [6-(pyrrolidine-1-carbonyl)-1,3-benzoxazole-2-thiol], `O=C(c1ccc2nc(C(F)(F)F)oc2c1)N1CCCC1` [6-(pyrrolidine-1-carbonyl)-2-(trifluoromethyl)-1,3-benzoxazole] is lower in “Caspase-3 induction, Normalized to Formula (III) (%)” value: −30.7254% for the first, −71.4007% for the second.

With `CC(C)CNC(=O)c1cc2c(cc1O)OCO2` [6-hydroxy-N-(2-methylpropyl)-2H-1,3-benzodioxole-5-carboxamide] the “Caspase-3 induction, Normalized to Formula (III) (%)” value was −31.2294%.
